These results are taken from patent US20240374570A1, “DRIVING AXON REGENERATION BY NRF2 OVEREXPRESSION AND EDARAVONE APPLICATION” (The Hong Kong University of Science and Technology, priority 2023, published 2024).

The subject of the assay is dorsal root ganglion (DRG) neurons. The experiment in a line: DRG neurons replating culture, axon growth. It is filed as cell-based, mice. The following applies: one day treatment, then replated 20 hours under continued treatment, vs DMSO vehicle. As to the method: FIGS. 3A-3B Edaravone promotes axon elongation in DRG replating culture. (FIG. 3A) Representative image of replated DRG neurons treated by the DMSO vehicle control and indicated concentration of edaravone. Scale bar: 400 μm. (FIG. 3B) Quantification of the longest neuron length of the tested concentrations of edaravone. Dots represent the measurement of each neuron.
Primary culture and replating culture of DRG neurons were performed as following protocols. L3-L5 dorsal root ganglia (DRGs) were dissected from adult WT mice and digested in 0.5% collagenase for 90 minutes. Subsequently, the digestion medium was replaced with culture medium (Neurobasal-A supplemented with penicillin-streptomycin and B-27). The digested DRGs were then triturated with a pipette 20-30 times to isolate DRG neurons. The isolated DRG neurons were plated onto a 6-well plate pre-coated with Poly-D-Lysine and laminin. Primary cultured DRG neurons received 1 μM edaravone, 10 μM edaravone or DMSO vehicle treatment for one day. After then, neurons were resuspended and replated to another dish under continue treatment of vehicle/edaravone. The replating culture was terminated with 4% PFA after 20 hours. Tuj1 staining was performed to visualize DRG cell bodies and neurites.
Adult mice dorsal root ganglion (DRG) neurons replating culture was used to investigate the effect of edaravone on axon growth. […]

On to `CC1=NN(c2ccccc2)C(=O)C1` [edaravone, 5-methyl-2-phenyl-2,4-dihydro-3H-pyrazol-3-one], for which the “axon (neurite) growth, longest neuron length” value (1 μM) is given as “significant growth-promoting effect” and the “axon (neurite) growth, longest neuron length” value (10 μM) is “significant growth-promoting effect”.
